Data taken from PubChem BioAssay AID248 (DTP/NCI, 2004).
Several values for one entry are separate records, joined by “and”; a condition that tells them apart may be missing. Identical values can stand only once. Toxic doses and inconclusive results are not listed. No stated cut-off is given here; in the data, active means T/C of 150% or more; inactive means T/C below 125%.

System: L1210 leukemia ip in BDF1 mice, survival T/C
Assay: NCI In Vivo Anticancer Drug Screen. Data for tumor model L1210 Leukemia (intraperitoneal) in B6D2F1 (BDF1) mice
Settings: endpoint: mean survival time, higher = longer survival
How it was run: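 Value reflects the ratio of survival in compound-treated mice to survival in vehicle-treated controls, with both groups carrying the same transplanted tumor.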

[1] = dose: 50.0 mg/kg/injection, schedule: Q01DX009 (ip), vehicle: saline
[2] = dose: 100.0 mg/kg/injection, schedule: Q01DX009 (ip), vehicle: saline
[3] = dose: 100.0 mg/kg/injection, schedule: Q04DX003 (ip), vehicle: saline with Tween-80
[4] = dose: 200.0 mg/kg/injection, schedule: Q04DX003 (ip), vehicle: saline with Tween-80
[5] = dose: 400.0 mg/kg/injection, schedule: Q04DX003 (ip), vehicle: saline with Tween-80
[6] = dose: 100.0 mg/kg/injection, schedule: Q04DX002 (ip), vehicle: saline
[7] = dose: 200.0 mg/kg/injection, schedule: Q04DX002 (ip), vehicle: saline
[8] = dose: 100.0 mg/kg/injection, schedule: Q04DX003 (ip), vehicle: saline
[9] = dose: 200.0 mg/kg/injection, schedule: Q04DX003 (ip), vehicle: saline
[10] = dose: 100.0 mg/kg/injection, schedule: Q01DX009 (ip), vehicle: saline with Tween-80
[11] = dose: 200.0 mg/kg/injection, schedule: Q01DX009 (ip), vehicle: saline with Tween-80
[12] = dose: 400.0 mg/kg/injection, schedule: Q01DX009 (ip), vehicle: saline with Tween-80
[13] = dose: 100.0 mg/kg/injection, schedule: Q01DX009 (ip), vehicle: Klucel (hydroxypropylcellulose) (HPC)
[14] = dose: 200.0 mg/kg/injection, schedule: Q01DX009 (ip), vehicle: Klucel (hydroxypropylcellulose) (HPC)
[15] = dose: 400.0 mg/kg/injection, schedule: Q04DX003 (ip), vehicle: saline

Measured: T/C

COc1cccc(/C(C)=N\Nc2ccc([N+](=O)[O-])cc2[N+](=O)[O-])c1OC
inactive: [1] 92 % of control | [2] 90 % of control | [3] 94 % of control and 96 % of control | [4] 87 % of control | [5] 86 % of control and 92 % of control

CC(=O)OC1c2cc(Cl)ccc2-c2c(Cl)cc(Cl)cc21 (stereo not given)
inactive: dose: 100.0 mg/kg/injection, schedule: Q01DX001 (ip), vehicle: carboxymethylcellulose (CMC) 95 % of control | dose: 200.0 mg/kg/injection, schedule: Q01DX001 (ip), vehicle: carboxymethylcellulose (CMC) 95 % of control | dose: 400.0 mg/kg/injection, schedule: Q01DX001 (ip), vehicle: carboxymethylcellulose (CMC) 95 % of control

COC(=O)C1=C2c3ccccc3NC(=O)N2NC1C(=O)OC (stereo not given)
inactive: dose: 50.0 mg/kg/injection, schedule: Q04DX002 (ip), vehicle: saline 108 % of control | [6] 90 % of control | [7] 90 % of control

CCC1(Cc2ccccc2)C(=O)NC(=S)N(C)C1=O (stereo not given)
inactive: dose: 75.0 mg/kg/injection, schedule: Q01DX001 (ip), vehicle: saline 106 % of control

O=S1(=O)CC(O)C(Cl)C1 (stereo not given)
inactive: [1] 101 % of control | [2] 94 % of control | [8] 98 % of control | dose: 200.0 mg/kg/injection, schedule: Q01DX009 (ip), vehicle: saline 94 % of control | [9] 94 % of control

Cc1n[nH]c(=O)[nH]c1=O
inactive: dose: 3.0 mg/kg/injection, schedule: Q01DX009 (ip), vehicle: saline 95 % of control | dose: 6.0 mg/kg/injection, schedule: Q01DX009 (ip), vehicle: saline 93 % of control | dose: 12.0 mg/kg/injection, schedule: Q01DX009 (ip), vehicle: saline 93 % of control | dose: 24.0 mg/kg/injection, schedule: Q01DX009 (ip), vehicle: saline 93 % of control | dose: 48.0 mg/kg/injection, schedule: Q01DX009 (ip), vehicle: saline 97 % of control | dose: 67.5 mg/kg/injection, schedule: Q01DX Z (ip), vehicle: saline 96 % of control | dose: 125.0 mg/kg/injection, schedule: Q01DX Z (ip), vehicle: saline 105 % of control | dose: 200.0 mg/kg/injection, schedule: Q01DX001 (ip), vehicle: acetone 97 % of control | dose: 250.0 mg/kg/injection, schedule: Q01DX Z (ip), vehicle: saline 96 % of control | dose: 400.0 mg/kg/injection, schedule: Q01DX001 (ip), vehicle: acetone 103 % of control | dose: 500.0 mg/kg/injection, schedule: Q01DX Z (ip), vehicle: saline 105 % of control | dose: 800.0 mg/kg/injection, schedule: Q01DX001 (ip), vehicle: acetone 98 % of control

CCCCCCCCC(=O)N1CCCC(C)C1 (stereo not given)
inactive: [6] 104 % of control | [7] 117 % of control | dose: 400.0 mg/kg/injection, schedule: Q04DX002 (ip), vehicle: saline 101 % of control

O=C1c2ccccc2C(=O)N1CCCn1c2ccccc2c2cnccc21
inactive: [10] 101 % of control | [3] 103 % of control | [11] 104 % of control | [4] 95 % of control | [12] 104 % of control | [5] 92 % of control

c1ccc(-c2cc(-c3ccccc3)[s+]s2)cc1
inactive: dose: 50.0 mg/kg/injection, schedule: Q01DX009 (ip), vehicle: saline with Tween-80 100 % of control | [10] 90 % of control | [3] 113 % of control | [4] 92 % of control | [5] 88 % of control

Cc1cc(CSC2=NCCCN2)c(C)cc1CSC1=NCCCN1
inactive: dose: 1.56 mg/kg/injection, schedule: Q01DX009 (ip), vehicle: saline 88 % of control | dose: 3.13 mg/kg/injection, schedule: Q01DX009 (ip), vehicle: saline 103 % of control | dose: 6.25 mg/kg/injection, schedule: Q01DX009 (ip), vehicle: saline 92 % of control

Cc1ccc(Cl)c(NC(=O)Nc2cccc(F)c2)c1
inactive: [13] 94 % of control | [14] 87 % of control | dose: 400.0 mg/kg/injection, schedule: Q01DX009 (ip), vehicle: Klucel (hydroxypropylcellulose) (HPC) 89 % of control

CCOc1ccc(NC(=S)N=Nc2c(O)[nH]c3c(Cl)cc(Cl)cc23)cc1
inactive: [8] 91 % of control | [9] 89 % of control | [15] 89 % of control

O=C1c2cccc3c([N+](=O)[O-])ccc(c23)C(=O)N1CC1CCCO1 (stereo not given)
inactive: [13] 108 % of control | [14] 110 % of control

O=Nc1c(O)ccc2ccccc12
inactive: dose: 3.12 mg/kg/injection, schedule: Q01DX009 (ip), vehicle: Klucel (hydroxypropylcellulose) (HPC) 90 % of control | dose: 5.0 mg/kg/injection, schedule: Q01DX001 (ip), vehicle: saline 98 % of control | dose: 6.25 mg/kg/injection, schedule: Q01DX009 (ip), vehicle: Klucel (hydroxypropylcellulose) (HPC) 95 % of control | dose: 10.0 mg/kg/injection, schedule: Q01DX001 (ip), vehicle: saline 104 % of control | dose: 12.5 mg/kg/injection, schedule: Q01DX009 (ip), vehicle: Klucel (hydroxypropylcellulose) (HPC) 92 % of control | dose: 20.0 mg/kg/injection, schedule: Q01DX001 (ip), vehicle: saline 95 % of control | dose: 25.0 mg/kg/injection, schedule: Q01DX001 (ip), vehicle: saline with Tween-80 94 % of control | dose: 25.0 mg/kg/injection, schedule: Q01DX009 (ip), vehicle: Klucel (hydroxypropylcellulose) (HPC) 104 % of control | dose: 40.0 mg/kg/injection, schedule: Q01DX001 (ip), vehicle: saline 101 % of control | dose: 50.0 mg/kg/injection, schedule: Q01DX001 (ip), vehicle: saline with Tween-80 104 % of control | dose: 80.0 mg/kg/injection, schedule: Q01DX001 (ip), vehicle: saline 106 % of control | dose: 100.0 mg/kg/injection, schedule: Q01DX001 (ip), vehicle: saline with Tween-80 91 % of control

COC(=O)Cc1cc(=O)c2cc(C)ccc2[nH]1
inactive: dose: 50.0 mg/kg/injection, schedule: Q01DX009 (ip), vehicle: acetone 94 % of control | dose: 100.0 mg/kg/injection, schedule: Q01DX009 (ip), vehicle: acetone 101 % of control | [8] 94 % of control | dose: 200.0 mg/kg/injection, schedule: Q01DX009 (ip), vehicle: acetone 97 % of control | [9] 94 % of control | [15] 94 % of control

FC(F)(F)c1nc2nc(Cl)c(Cl)nc2n1CCCN1CCOCC1
inactive: [10] 117 % of control | [11] 107 % of control | [12] 103 % of control
